The test system of test [1] is C3H/HeNCrljBgi mice. Description: Animal Test 3: organic acid effect and soy extracted phospholipid effect, hair growth area. The test is classed as in vivo, mouse. The settings on record: 2.5 weeks, twice a day, phospholipids 20 mg/ml, minoxidil 5% applied to all groups except Group 1 30 minutes before the composition.
Protocol: In addition, the composition was prepared by using soy lecithin (phospholipid extracted from soy, #86015-1201, Junsei Chemical, Japan), and then effect of the composition on hair growth was compared. C3H/HeNCrljBgi species of 7 ages of weeks (Orient Bio, Sungnam, Korea) were purchased as the experimental mice, and then used for the test. […] The composition of the present invention was applied for 2.5 weeks, and 60 ml of the composition was applied on the backs of the hairs-removed mice twice a day. The concentration of the applied phospholipids was 20 mg/ml. As a measurement of hair growth in the mice, the pictures of the mice of each experimental group were taken, respectively, and then the ratio of the hair growth area in the hairs-removed area was calculated.
For test [2], the system named is mice with DNFB-induced allergic dermatitis. Description: Animal Test 1: hair follicle growth in back skin tissue of mice with DNFB-induced allergic dermatitis. The test is classed as in vivo, mouse. As to conditions: comparators: Tacrolimus ointment (FIG. 5), 0.1% dexamethasone in ethanol (FIG. 6), twice a day, 10 days.
Description: In order to prepare animal models with an atopic dermatitis, or a contact dermatitis and allergic dermatitis, After 1 week of sensitizing with DNFB, DNFB was applied to the backs of mice total 10 times per 2 weeks to induce an artificial allergic dermatitis. […] Since applying DNFB five times, the composition of the present invention, Tacrolimus ointment (trade name, Protopic, Astella Pharma Korea, Inc.), and dexamethasone (Sigma Chem. Co. USA, 0.1% solution dissolved in ethanol) were applied to the backs of mice occurred with inflammation twice a day in the amount of 60 ml, respectively. At 10 days after applying, the mice tissues were collected to test experiments.

Turning to `Nc1cc(N2CCCCC2)nc(N)[n+]1[O-]` [Minoxidil, minoxidil], in test [1], the “Hair growth area (ratio of the hair growth area in the hairs-removed area)” value was 10.2.

In the case of `C=CC[C@@H]1/C=C(\C)C[C@H](C)C[C@H](OC)[C@H]2O[C@@](O)(C(=O)C(=O)N3CCCC[C@H]3C(=O)O[C@H](/C(C)=C/[C@@H]3CC[C@@H](O)[C@H](OC)C3)[C@H](C)[C@@H](O)CC1=O)[C@H](C)C[C@@H]2OC` [Tacrolimus, tacrolimus], in test [2], the “hair follicle growth in mice tissues” value was “new hair follicles were formed”.

Source of the values: patent US20130150327A1, “COMPOSITION FOR PREVENTING HAIR LOSS OR STIMULATING HAIR GROWTH” (Biopid Corporation, priority 2010, published 2013).
